Marks after values point to notes of the source that are not given here.
Experiments:
NF-κB p50/65 = assay: NF-κB DNA binding ELISA in HT-29 nuclear extracts; format: cell-based, human; settings: HT-29 cells; p65 siRNA transfection or 10 μg DHMEQ/ml, 2 h after removing the inhibitor
Protocol: HT-29 cells were cultured and treated with PFs as indicated in the caption to FIG. 1. (A) NF-κB binding to DNA (measured 3 h after the last PF addition). Recombinant human TNFα (0.5 nM, Sigma, St. Louis, Mo.) was added 6 h before the last PF addition. IκBα (B) and P-IκBα (C) analysis by western blot (lane 1, TNFα; lane 2, control; lane 3, […]). Relative densitometric intensities for protein bands from western blots of IκBα and P-IκBα) were normalized to β-actin (black bar, TNFα; white bar, control; grey bar, […]). […] Transfection of siRNA was performed as explained under “Materials and Methods”. (A) western blot analysis of p65 in cells transfected with p65 siRNA, or NS siRNA. For comparison NF-κB binding to DNA (B) and bcl-2 expression (RT-PCR) (C) were determined in HT-29 cells transfected with p65 siRNA or treated with dehydroxymethylepoxyquinomicin (DHMEQ). […] Nuclear extract were prepared as previously described (18). An enzyme linked immunosorbent assay (ELISA) was performed in line with the manufacturer's protocol for a commercial kit (Chemiluminiscent NF-κB p50/65 Transcription Factor Assay, Oxford Biomedical Research, Oxford, Mich.). […] The DNA bound NF-κB is selectively recognized by the primary antibody, which, in turn, is detected by the secondary antibodyalkaline phosphatase conjugate. […]

bcl-2 [1] = assay: bcl-2 expression (RT-PCR) in cultured HT-29 cells; format: cell-based, human; settings: p65 siRNA transfection or 10 μg DHMEQ/ml, 12 h after removing the inhibitor
Protocol: Transfection of siRNA was performed as explained under “Materials and Methods”. (A) western blot analysis of p65 in cells transfected with p65 siRNA, or NS siRNA. For comparison NF-κB binding to DNA (B) and bcl-2 expression (RT-PCR) (C) were determined in HT-29 cells transfected with p65 siRNA or treated with dehydroxymethylepoxyquinomicin (DHMEQ). For this purpose cultured HT-29 cells (24 h after seeding) were incubated in the absence or in the presence of 10 μg DHMEQ/ml, and NF-κB activation and bcl-2 expression were measured 2 h and 12 h, respectively, after removing the inhibitor.
Total RNA was isolated using the trizol kit from Invitrogen and following manufacturer's instructions. cDNA was obtained using a random hexamer primer and a MultiScribe Reverse Transcriptase kit as described by the manufacturer (TaqMan RT Reagents, Applied Biosystems, Foster City, Calif.). […]
Real-time quantitation of the mRNA relative to GAPDH was performed with a SYBR Green I assay, and a iCycler detection system (Biorad, Hercules, Calif.). […] The increase in fluorescence was measured in real time during the extension step. The threshold cycle (CT) was determined, and then the relative gene expression was expressed as: fold change=2^−Δ(ΔCT), where ΔCT=CT target−CT GAPDH, and Δ (ΔCT)=ΔCT treated−ΔCT control. […]

HT-29 xenografts = assay: HT-29 xenograft growth; format: in vivo, nu/nu nude mice; settings: Table 3B; HT-29; 30 days after inoculation
Protocol: Tumor growth was measured during a 30-day period. Tumor volume, one week after inoculation and before PF administration, was of 56+15 mm3. A. […] B. Growth profile of control ([…]) and t-PTER- and QUER (∘) (20 mg of each PF/kg)-treated HT-29-bearing mice. Data are means±S.D. of 18-20 mice per group. The significant test refers, for all groups, to the comparison between PTER and/or QUER and controls (treated with physiological saline) (*P<0.01). For HT-29 cancer cell xenograft experiments, female nu/nu nude mice (ages 6 to 8 weeks; […] Tumor volume was calculated based on two dimensions, measured using calipers, and was expressed in cubic millimeters according to the formula: […] For histological analysis the surgical and xenograft tissue samples were fixed in 4% formaldehyde, paraffin embedded, and stained with hematoxilin & eosin and safran. […] This study was conducted in compliance with international laws and policies (EEC Directive 86/609, OJ L 358. 1, Dec. 12, 1987; and NIH Guide for the Care and Use of Laboratory Animals, NIH Publ. No. 85-23, 1985). X rays were administered using a […] SL75 linear accelerator from Philips. For this purpose each mouse was anesthetized with nembutal (50 mg/kg i.p.), and fixed on a Perspex platform.

[2] = tested on: HT-29/Tet-bcl-2 xenografts; assay: HT-29/Tet-bcl-2 xenograft growth; format: in vivo, mice; settings: Table 3B, 30 days after inoculation
Protocol: For HT-29 cancer cell xenograft experiments, female nu/nu nude mice (ages 6 to 8 weeks; Charles Rivers Laboratories, Wilmington, Mass.) were inoculated s.c. with 5×10^6 HT-29 or HT-29-GFP cells per mouse. Tumor volume was calculated based on two dimensions, measured using calipers, and was expressed in cubic millimeters according to the formula: V=0.5a×b2, where a and b are the long and the short diameters of the tumor, respectively. For histological analysis the surgical and xenograft tissue samples were fixed in 4% formaldehyde, paraffin embedded, and stained with hematoxilin & eosin and safran. Mice were monitored for at least 30 days after inoculation, and tumor measurements were taken on day 5, 10, 15, 20, 25, and 30. This study was conducted in compliance with international laws and policies (EEC Directive 86/609, OJ L 358. 1, Dec. 12, 1987; and NIH Guide for the Care and Use of Laboratory Animals, NIH Publ. No. 85-23, 1985). […]
(§1) The Tet-off gene expression system (Clontech, Palo Alto, Calif.) was used, as previously reported (17), to insert the human bcl-2 gene and for transfection into HT-29 cells following manufacturer's instructions. Bcl-2 protein was quantitated in the soluble cytosolic fraction by enzyme immunoassay (17) using a monoclonal antibody-based assay from Sigma (one unit of Bcl-2 was defined as the amount of Bcl-2 protein in 1000 non-transfected HT-29 cells).

SOD1 = assay: SOD activity in xenograft samples; format: in vivo, human; settings: single treatment (PQ or SOD2-AS)
Protocol: (§2) Tumor tissue was homogenized in 0.1M phosphate buffer (pH 7.2) at 4° C.
(§3) Superoxide dismutase (SOD) activity was measured as described by Flohé and Otting (14), using 2 mM cyanide in the assay medium to distinguish mangano-type enzyme (SOD2) from the cuprozinc type (SOD1).

SOD2 = assay: SOD activity in xenograft samples; format: in vivo, human
Protocol: as §2, §3

bcl-2 [3] = assay: Bcl-2 protein enzyme immunoassay in xenograft samples; format: in vivo, human; settings: single treatment (PQ or SOD2-AS)
Excerpt: as §1

## O=C(NC1=CC(=O)[C@H]2O[C@H]2[C@H]1O)c1ccccc1O [DHMEQ, dehydroxymethylepoxyquinomicin]
NF-κB p50/65
  NF-κB binding to DNA: significant decrease
bcl-2 [1]
  bcl-2 expression: significant decrease

## SOD2-AS: Fully phosphorothioated 21-mer human SOD2 antisense oligodeoxynucleotide, 5′-GGAACCUCACAUCAACGCGCA-3′ (DNA, all phosphorothioate, methylation of C and T or U not given here)
HT-29 xenografts
  Tumor volume: 2337 ± 266^b mm^3
[2]
  Tumor volume: 2942 ± 387^ab mm^3
SOD1; HT-29/tet-Bcl-2 xenograft
  SOD1 activity: 6.3 ± 0.48 Units/mg protein
SOD1; HT-29 xenograft
  SOD1 activity: 5.77 ± 0.62 Units/mg protein
SOD2; HT-29/tet-Bcl-2 xenograft, single treatment (PQ or SOD2-AS)
  SOD2 activity: 0.33 ± 0.12 Units/mg protein
SOD2; HT-29 xenograft, single treatment (PQ 20 mg each/kg or SOD2-AS 5 mg/kg each 3 days)
  SOD2 activity: 0.27 ± 0.056^b Units/mg protein
bcl-2 [3]; HT-29/tet-Bcl-2 xenograft
  Bcl-2 levels: 81 ± 9^a Units/mg protein
bcl-2 [3]; HT-29 xenograft
  Bcl-2 levels: 19 ± 3 Units/mg protein
